Results on five compounds are retold here after PubChem BioAssay AID652225 (The Scripps Research Institute Molecular Screening Center, 2013).

Active and inactive are the calls of the source.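 The calls were made as follows: active = compounds inhibiting PP5 with an IC50 below 50 µM; inactive = IC50 of 50 µM or more.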

The target in the test is Serine/threonine-protein phosphatase 5 (Homo sapiens) (UniProt P53041). Kind of test: human PP5c inhibitor potency, radiometric – biochemical, radiolabel, glycogen phosphorylase substrate, set 2, selectivity assay for PP1 inhibitor project, late-stage follow-up (AID 652225). The note with it: purified PP5c, 32P-glycogen phosphorylase dephosphorylation, scintillation.
Sequence of Serine/threonine-protein phosphatase 5 (Homo sapiens) (P53041 whole entry, looked up): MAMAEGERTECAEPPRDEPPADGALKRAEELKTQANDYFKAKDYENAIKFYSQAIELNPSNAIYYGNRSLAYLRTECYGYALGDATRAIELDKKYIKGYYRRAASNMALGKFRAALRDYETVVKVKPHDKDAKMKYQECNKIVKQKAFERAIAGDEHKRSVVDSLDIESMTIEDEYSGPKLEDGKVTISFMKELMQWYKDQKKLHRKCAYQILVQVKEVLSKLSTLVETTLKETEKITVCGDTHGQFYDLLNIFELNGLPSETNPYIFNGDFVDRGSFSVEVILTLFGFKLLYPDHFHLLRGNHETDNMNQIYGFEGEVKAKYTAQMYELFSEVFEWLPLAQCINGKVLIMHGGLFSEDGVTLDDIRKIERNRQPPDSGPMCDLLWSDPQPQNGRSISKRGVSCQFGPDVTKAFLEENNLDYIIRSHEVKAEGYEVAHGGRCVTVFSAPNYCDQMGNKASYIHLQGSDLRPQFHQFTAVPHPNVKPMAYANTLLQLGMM

Take `COc1ccc(NC(=O)C2C3CCC(O3)C2C(=O)O)c(OC)c1` (stereo not given): the IC50 was 4.16 µM.
`CN1CCN(C(c2ccccn2)c2cc(Cl)c3cccnc3c2O)CC1` (stereo not given): the IC50 was > 50 µM (inactive).
For `N#Cc1c(-c2ccc(Cl)cc2)cc(-c2cccs2)nc1SCC(=O)O`, the IC50 is > 50 µM (inactive).
With `CCn1c2ccccc2c2cc(NC(=O)COC(=O)c3ccc(NC(=O)CC#N)cc3)ccc21`, the IC50 is > 50 µM (inactive).
Take `CCOC(=O)c1sc2nc3c(SCC(=O)O)cc(C(=O)c4cc(F)ccc4O)cn3c(=O)c2c1C`: the IC50 is > 50 µM (inactive).

For orientation: IC50 means the concentration that gives 50% inhibition.
